Experimental data reported in US20220016101A1 (ACADIA Pharmaceuticals Inc., priority 2018, published 2022).

System: patients with MDD and an inadequate response to an SSRI or SNRI
Test: Massachusetts General Hospital Sexual Functioning Index (MGH-SFI), Study ACP-103-042
Assay type: in vivo, human
From the text: “Massachusetts General Hospital Sexual Functioning Index (MGH-SFI)” is described, for instance, in Labbate and Lare, 2001, Psychother Psychosom. 70(4):221-225. This is a patient facing questionnaire that quantifies sexual dysfunction into 5 functional domains (“interest in sex,” “sexual arousal,” “ability to achieve orgasm,” “ability to maintain erection” (males only), and “sexual satisfaction”). Patients rate each item using a 6-point scale ranging from 1 (good function) to 6 (poor function). High scores indicate poor sexual functioning. […] The determination of the subject's status and eligibility for randomization in Stage 2 was made in a double-blind manner. […] Sexual functioning was assessed using the Massachusetts General Hospital Sexual Functioning Index or MGH-SFI (Labbate and Lare, 2001, Psychother Psychosom. 70(4):221-225). This is a patient facing questionnaire that quantifies sexual dysfunction into 5 functional domains (“interest in sex,” “sexual arousal,” “ability to achieve orgasm,” “ability to maintain erection” [malesonly], and “sexual satisfaction”). Patients rate each item using a 6-point scale ranging from 1 (good function) to 6 (poor function). The time frame for this scale is the past month. This scale was administered at baseline and Week 5 in both stages of the study. High scores indicate poor sexual functioning. In ACP-103-042 the mean scores for MGH-SFI at Baseline was calculated over all 5 domains for males and the 4 domains for females. For MGH-SFI (follow-up version) at Study Weeks 5 and 10, the mean was calculated in the same way as MGH-SFI at Baseline. […] Tables 10-27 summarize the detailed data of MGH-SFI individual items of the overall study group (Tables 10-15), the subgroup of age of <=50 (Tables 16-21) and the subgroup of age of >50 (Table 21-26). In Tables 9-26, ANCOVA=analysis of covariance; OC=observed cases; LSM=least squares mean; CI=confidence interval; SD=standard deviation; SE=standard error. Stage 1: Baseline=Study Week 0, Week 5=Study Week 5; Stage 2: Baseline=Study Week 5, Week 5=Study Weeks 10. LSM from the stage-specific ANCOVA analysis with the change from baseline as the outcome, treatment group as a factor, and the corresponding Baseline value as a covariate. 2-sided p-value for treatment difference from the stage-specific ANCOVA analysis. An treatment effect size (Cohen's d) is calculated using the formula: Effect Size=Least Square mean difference between PIM and PBO/SD. The corresponding 95% confidence interval for an effect size is calculated based on the theoretical probability distribution of the effect size. […] Tables 10-15 and 28-38 summarize the detailed data of MGH-SFI individual items of the overall study group (Tables 10-15), the female subgroup (Tables 33-37) and the male subgroup (Table 38-43). An treatment effect size (Cohen's d) is calculated using the formula: Effect Size=Least Square mean difference between PIM and PBO/SD. The corresponding 95% confidence interval for an effect size is calculated based on the theoretical probability distribution of the effect size. In Tables 10-15 and 28-38, ANCOVA=analysis of covariance; OC=observed cases; LSM=least squares mean; CI=confidence interval; SD=standard deviation; SE=standard error. Stage 1: Baseline=Study Week 0, Week 5=Study Week 5; Stage 2: Baseline=Study Week 5, Week 5=Study Weeks 10. LSM from the stage-specific ANCOVA analysis with the change from baseline as the outcome, treatment group as a factor, and the corresponding Baseline value as a covariate. 2-sided p-value for treatment difference from the stage-specific ANCOVA analysis. An treatment effect size (Cohen's d) is calculated using the formula: Effect Size=Least Square mean difference between PIM and PBO/SD. The corresponding 95% confidence interval for an effect size is calculated based on the theoretical probability distribution of the effect size.

[1] = Stage 2, Overall Study Group, 34 mg QD + SSRI/SNRI
[2] = Stage 2, Subgroup of <=50 Years
[3] = Stage 2, Subgroup of <=50 Years Old
[4] = Stage 2, Subgroup of <=50 Years Old, 34 mg QD + SSRI/SNRI
[5] = female subgroup, Stage 1 (Study Week 0 to 5), PIM 34 mg
[6] = female subgroup, Stage 1 (Study Week 5), PIM 34 mg
[7] = female subgroup, Stage 1, positive = pimavanserin better than placebo
[8] = female subgroup, Stage 2 (Study Week 5 to 10), PIM 34 mg
[9] = female subgroup, Stage 2 (Study Week 10), PIM 34 mg
[10] = female subgroup, Stage 2, positive = pimavanserin better than placebo

Compound: CC(C)COc1ccc(CNC(=O)N(Cc2ccc(F)cc2)C2CCN(C)CC2)cc1 [pimavanserin, N-(4-Fluorophenylmethyl)-N-(1-methylpiperidin-4-yl)-N′-(4-(2-methylpropyloxy)phenylmethyl)carbamide]
- MGH-SFI 05: Overall Sexual Satisfaction, Effect Size (Cohen's d) (Stage 2, Overall Study Group): 0.404
- MGH-SFI 05: Overall Sexual Satisfaction, Week 5 Median (Stage 2, Overall Study Group): 4.5
- MGH-SFI 06: Overall Improvement Since Last Medication Change, Effect Size (Cohen's d) (Stage 2, Overall Study Group): 0.227
- MGH-SFI 06: Overall Improvement Since Last Medication Change, Week 5 Median (Stage 2, Overall Study Group): 4.0
- MGH-SFI 01: Interest in Sex, Week 5 Mean (SE) [1]: 4.1 (0.28)
- MGH-SFI 02: Ability to Get Sexually Aroused or Excited, Week 5 Mean (SE) [1]: 4.2 (0.27)
- MGH-SFI 03: Ability to Achieve Orgasm, Week 5 Mean (SE) [1]: 4.3 (0.32)
- MGH-SFI 04: (Men) Ability to Get and Maintain an Erection, Week 5 Mean (SE) [1]: 3.1 (0.54)
- MGH-SFI 05: Overall Sexual Satisfaction, Week 5 Mean (SE) [1]: 4.1 (0.33)
- MGH-SFI 06: Overall Improvement Since Last Medication Change, Week 5 Mean (SE) [1]: 3.6 (0.25)
- MGH-SFI 01: Interest in Sex, Change from Baseline to Week 5 Mean (SE) [2]: −0.3 (0.21)
- MGH-SFI 01: Interest in Sex, Change from Baseline to Week 5 Median [2]: 0.0
- MGH-SFI 01: Interest in Sex, Effect Size (Cohen's d) [2]: 0.081
- MGH-SFI 01: Interest in Sex, Week 5 Median [2]: 4.0
- MGH-SFI 02: Ability to Get Sexually Aroused or Excited, Change from Baseline to Week 5 Mean (SE) [3]: −0.3 (0.25)
- MGH-SFI 02: Ability to Get Sexually Aroused or Excited, Change from Baseline to Week 5 Median [3]: −1.0
- MGH-SFI 02: Ability to Get Sexually Aroused or Excited, Effect Size (Cohen's d) [3]: 0.017
- MGH-SFI 02: Ability to Get Sexually Aroused or Excited, Week 5 Median [3]: 4.0
- MGH-SFI 03: Ability to Achieve Orgasm, Change from Baseline to Week 5 Mean (SE) [3]: −0.3 (0.25)
- MGH-SFI 03: Ability to Achieve Orgasm, Change from Baseline to Week 5 Median [3]: 0.0
- MGH-SFI 03: Ability to Achieve Orgasm, Effect Size (Cohen's d) [3]: 0.449
- MGH-SFI 03: Ability to Achieve Orgasm, Week 5 Median [3]: 4.0
- MGH-SFI 02: Ability to Get Sexually Aroused or Excited, Week 5 Mean (SE) [4]: 4.1 (0.33)
- MGH-SFI 03: Ability to Achieve Orgasm, Week 5 Mean (SE) [4]: 4.1 (0.40)
- MGH-SFI 01: Interest in Sex, Week 5 Mean (SE) (Stage 2, Subgroup of <=50 Years, 34 mg QD + SSRI/SNRI): 3.9 (0.36)
- MGH-SFI Items effect sizes, mean change from baseline to Week 5 vs placebo (female patients): > 0.5
- MGH-SFI 01: Interest in Sex, Change from Baseline to Week 5 Mean (SE) [5]: −0.9 (0.21)
- MGH-SFI 01: Interest in Sex, Change from Baseline to Week 5 Median [5]: −1.0
- MGH-SFI 02: Ability to Get Sexually Aroused or Excited, Change from Baseline to Week 5 Mean (SE) [5]: −0.8 (0.17)
- MGH-SFI 02: Ability to Get Sexually Aroused or Excited, Change from Baseline to Week 5 Median [5]: −1.0
- MGH-SFI 03: Ability to Achieve Orgasm, Change from Baseline to Week 5 Mean (SE) [5]: −1.2 (0.27)
- MGH-SFI 03: Ability to Achieve Orgasm, Change from Baseline to Week 5 Median [5]: 0.0
- MGH-SFI 05: Overall Sexual Satisfaction, Change from Baseline to Week 5 Mean (SE) [5]: −0.9 (0.26)
- MGH-SFI 05: Overall Sexual Satisfaction, Change from Baseline to Week 5 Median [5]: 0.0
- MGH-SFI 01: Interest in Sex, Week 5 Mean (SE) [6]: 3.7 (0.29)
- MGH-SFI 01: Interest in Sex, Week 5 Median [6]: 4.0
- MGH-SFI 02: Ability to Get Sexually Aroused or Excited, Week 5 Mean (SE) [6]: 3.7 (0.28)
- MGH-SFI 02: Ability to Get Sexually Aroused or Excited, Week 5 Median [6]: 3.5
- MGH-SFI 03: Ability to Achieve Orgasm, Week 5 Mean (SE) [6]: 3.8 (0.28)
- MGH-SFI 03: Ability to Achieve Orgasm, Week 5 Median [6]: 4.0
- MGH-SFI 05: Overall Sexual Satisfaction, Week 5 Mean (SE) [6]: 3.8 (0.29)
- MGH-SFI 05: Overall Sexual Satisfaction, Week 5 Median [6]: 3.5
- MGH-SFI 06: Overall Improvement Since Last Medication Change, Week 5 Mean (SE) [6]: 3.2 (0.17)
- MGH-SFI 06: Overall Improvement Since Last Medication Change, Week 5 Median [6]: 4.0
- MGH-SFI 01: Interest in Sex, Effect Size (Cohen's d) [7]: 0.561
- MGH-SFI 02: Ability to Get Sexually Aroused or Excited, Effect Size (Cohen's d) [7]: 0.616
- MGH-SFI 03: Ability to Achieve Orgasm, Effect Size (Cohen's d) [7]: 0.749
- MGH-SFI 05: Overall Sexual Satisfaction, Effect Size (Cohen's d) [7]: 0.627
- MGH-SFI 06: Overall Improvement Since Last Medication Change, Effect Size (Cohen's d) [7]: 0.634
- MGH-SFI 01: Interest in Sex, Change from Baseline to Week 5 Mean (SE) [8]: −0.3 (0.17)
- MGH-SFI 01: Interest in Sex, Change from Baseline to Week 5 Median [8]: 0.0
- MGH-SFI 02: Ability to Get Sexually Aroused or Excited, Change from Baseline to Week 5 Mean (SE) [8]: −0.3 (0.20)
- MGH-SFI 02: Ability to Get Sexually Aroused or Excited, Change from Baseline to Week 5 Median [8]: 0.0
- MGH-SFI 03: Ability to Achieve Orgasm, Change from Baseline to Week 5 Mean (SE) [8]: −0.3 (0.20)
- MGH-SFI 03: Ability to Achieve Orgasm, Change from Baseline to Week 5 Median [8]: 0.0
- MGH-SFI 05: Overall Sexual Satisfaction, Change from Baseline to Week 5 Mean (SE) [8]: −0.4 (0.26)
- MGH-SFI 05: Overall Sexual Satisfaction, Change from Baseline to Week 5 Median [8]: 0.0
- MGH-SFI 01: Interest in Sex, Week 5 Mean (SE) [9]: 4.4 (0.34)
- MGH-SFI 01: Interest in Sex, Week 5 Median [9]: 5.0
- MGH-SFI 02: Ability to Get Sexually Aroused or Excited, Week 5 Mean (SE) [9]: 4.5 (0.32)
- MGH-SFI 02: Ability to Get Sexually Aroused or Excited, Week 5 Median [9]: 5.0
- MGH-SFI 03: Ability to Achieve Orgasm, Week 5 Mean (SE) [9]: 4.6 (0.38)
- MGH-SFI 03: Ability to Achieve Orgasm, Week 5 Median [9]: 5.0
- MGH-SFI 05: Overall Sexual Satisfaction, Week 5 Mean (SE) [9]: 4.6 (0.38)
- MGH-SFI 05: Overall Sexual Satisfaction, Week 5 Median [9]: 5.0
- MGH-SFI 06: Overall Improvement Since Last Medication Change, Week 5 Mean (SE) [9]: 3.6 (0.29)
- MGH-SFI 06: Overall Improvement Since Last Medication Change, Week 5 Median [9]: 4.0
- MGH-SFI 01: Interest in Sex, Effect Size (Cohen's d) [10]: 0.073
- MGH-SFI 02: Ability to Get Sexually Aroused or Excited, Effect Size (Cohen's d) [10]: −0.064
- MGH-SFI 03: Ability to Achieve Orgasm, Effect Size (Cohen's d) [10]: 0.132
